Experimental data from patent publication US20240254118A1, “PRMT5 INHIBITORS AND USES THEREOF” (Gilead Sciences, Inc., priority 2022, published 2024).

Tests used:
[1] = test system: SDMA signal (PRMT5 inhibition) in HCT116 MTAP-deleted cells; experiment: Symmetric di-methyl arginine image-based high content screen assay (SDMA assay), HCT116 MTAP-deleted; assay type: cell-based; settings: SDMA assay; for EC50: Homo sapiens, HCT-116, 72 h, 3 days of treatment, cell line not given, taken as HCT116 MTAP-deleted, read-out: EC50 (SDMA assay); for EC50 selectivity (SDMA assay): taken as HCT116 WT versus MTAP-deleted
How it was run: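 Read-out: per-cell mean SDMA immunofluorescence (Alexa Fluor 488 secondary), cells segmented by DAPI on a high-content imager. Compound exposure in HCT116 MTAP-deleted cells lasted until fixation on Day 3; overnight 4° C primary anti-SDMA antibody staining.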

[2] = test system: HCT116 MTAP-deleted cells; experiment: Cell viability assay (CellTiter-Glo, 7 days), HCT116 MTAP-deleted; settings: Homo sapiens, HCT-116, 168 h

Row | Compound | EC50 [1] [nM] | EC50 selectivity (SDMA assay) [1] | CC50 [2] [nM]
1 | Nc1nc2ccc(C(=O)N(Cc3ccc(C(F)(F)F)cn3)Nc3ncccn3)cc2c2ccccc12 [Example 76, 6-amino-N′-(pyrimidin-2-yl)-N-((5-(trifluoromethyl)pyridin-2-yl)methyl)phenanthridine-2-carbohydrazide] | 1 to 5 | 204 | 100 to 1000
2 | Cn1c(CN(C(=O)c2ccc3nc(N)c4ccccc4c3c2)N2CCCC2=O)nc2ccccc21 [Example 79, 6-Amino-N-[(1-methylbenzimidazol-2-yl)methyl]-N-(2-oxopyrrolidin-1-yl) phenanthridine-2-carboxamide] | 1 to 5 | 406 | 100 to 1000
3 | Cn1ncc2c(N)nc3ccc(C(=O)N(Cc4nc5ccccc5n4C)N4CCCC4=O)cc3c21 [Example 80, 4-Amino-1-methyl-N-[(1-methylbenzimidazol-2-yl)methyl]-N-(2-oxopyrrolidin-1-yl)pyrazolo[4,3-c]quinoline-8-carboxamide] | < 1 | 164 | < 100
4 | Cn1c(CN(C(=O)c2ccc3nc(N)c4c(c3c2)COC4)N2CCCC2=O)nc2ccccc21 [Example 81, 4-Amino-N-[(1-methylbenzimidazol-2-yl)methyl]-N-(2-oxopyrrolidin-1-yl)-1,3-dihydrofuro[3,4-c]quinoline-8-carboxamide] | 1 to 5 | 101 | < 100
5 | CCn1c(CN(C(=O)c2ccc3nc(N)c4cnn(C)c4c3c2)N2CCCC2=O)nc2ccccc21 [Example 83, 4-Amino-N-[(1-ethylbenzimidazol-2-yl)methyl]-1-methyl-N-(2-oxopyrrolidin-1-yl)pyrazolo[4,3-c]quinoline-8-carboxamide] | 1 to 5 | 242 | 100 to 1000
6 | CN1CCN(N(Cc2ccc(C(F)(F)F)cn2)C(=O)c2cc3c(cc2Cl)nc(N)c2cnn(C)c23)C1=O [Example 84, 4-Amino-7-chloro-1-methyl-N-(3-methyl-2-oxo-imidazolidin-1-yl)-N-[[5-(trifluoromethyl)-2-pyridyl]methyl]pyrazolo[4,3-c]quinoline-8-carboxamide] | 1 to 5 | 26 | < 100
7 | Cn1ncc2c(N)nc3ccc(C(=O)N(Cc4nc5ccc(F)cc5s4)N4CCCC4=O)cc3c21 [Example 85, 4-Amino-N-[(6-fluoro-1,3-benzothiazol-2-yl)methyl]-1-methyl-N-(2-oxopyrrolidin-1-yl)pyrazolo[4,3-c]quinoline-8-carboxamide] | < 1 | 48 | < 100

Now from value to molecule, other results behind:

Row | EC50 [1] [nM] | EC50 selectivity (SDMA assay) [1] | Compound | CC50 [2] [nM]
8 | < 1 | 68 | CN(C1CC1)N(Cc1ccc(C(F)(F)F)cn1)C(=O)c1ccc2nc(N)c3cnn(C)c3c2c1 [Example 75, 4-amino-N′-cyclopropyl-N′,1-dimethyl-N-((5-(trifluoromethyl)pyridin-2-yl)methyl)-1H-pyrazolo[4,3-c]quinoline-8-carbohydrazide] | < 100
9 | < 1 | 69 | CC(=O)N(C)N(Cc1ccc(OC(F)F)cc1F)C(=O)c1ccc2nc(N)c3cnn(C)c3c2c1 [Example 77, N′-acetyl-4-amino-N-(4-(difluoromethoxy)-2-fluorobenzyl)-N′,1-dimethyl-1H-pyrazolo[4,3-c]quinoline-8-carbohydrazide] | < 100
10 | < 1 | 19 | Cn1ncc2c(N)nc3cc(F)c(C(=O)N(Cc4ccc(OC(F)F)cc4F)N4CCCC4=O)cc3c21 [Example 78, 4-amino-N-(4-(difluoromethoxy)-2-fluorobenzyl)-7-fluoro-1-methyl-N-(2-oxopyrrolidin-1-yl)-1H-pyrazolo[4,3-c]quinoline-8-carboxamide] | < 100
